From ChEMBL document CHEMBL1201862, “PubChem BioAssay data set” (2004)
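Results reflect a 48-hour exposure of cells in 96-well plates to compound at five concentrations. GI50: concentration for 50% inhibition of growth.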 Active and inactive are the calls of the source. Rule as the data show it: active = GI50 up to about 1.1 µM and inactive = higher.

Assays:
Assay in all cases: inhibition of tumour cell growth, NCI panel, 48 h
BT-549 = system: BT-549
MDA-MB-231 = system: MDA-MB-231
SK-MEL-5 = system: SK-MEL-5
SN12C = system: SN12C
MCF7 = system: MCF7
SF-539 = system: SF-539
HOP-62 = system: HOP-62
SK-OV-3 = system: SK-OV-3
T47D = system: T47D
RPMI-8226 = system: RPMI-8226
DU-145 = system: DU-145
OVCAR-4 = system: OVCAR-4
KM12 = system: KM12
Malme-3M = system: Malme-3M
COLO 205 = system: COLO 205
U-251 = system: U-251
HCT-116 = system: HCT-116
IGROV-1 = system: IGROV-1
MDA-N = system: MDA-N
SNB-75 = system: SNB-75

| SMILES | GI50 (BT-549) | GI50 (MDA-MB-231) | GI50 (SK-MEL-5) | GI50 (SN12C) | GI50 (MCF7) | GI50 (SF-539) | GI50 (HOP-62) | GI50 (SK-OV-3) | GI50 (T47D) | GI50 (RPMI-8226) | GI50 (DU-145) | GI50 (OVCAR-4) | GI50 (KM12) | GI50 (Malme-3M) | GI50 (COLO 205) | GI50 (U-251) | GI50 (HCT-116) | GI50 (IGROV-1) | GI50 (MDA-N) | GI50 (SNB-75) |
| --- | --- | --- | --- | --- | --- | --- | --- | --- | --- | --- | --- | --- | --- | --- | --- | --- | --- | --- | --- | --- |
| O=C(CNc1cccc([N+](=O)[O-])c1)Nn1c(-c2ccccc2)nc2ccccc2c1=O | 1.87 µM (inactive) | 0.776 µM (active) | 1.02 µM (active) | 0.508 µM (active) | 0.389 µM (active) | 1.97 µM (inactive) | 1.97 µM (inactive) | 0.573 µM (active) | 2.17 µM (inactive) | 0.478 µM (active) | 2.38 µM (inactive) | 2.18 µM (inactive) | 1.18 µM (inactive) | 0.973 µM (active) | 1.43 µM (inactive) | 1.05 µM (active) | 0.508 µM (active) | 0.201 µM (active) |  |  |
| C=C1C(=O)C23CC1CCC2C12CO[C@@]3(O)[C@@H](O)C1C(C)(C)C=CC2=O (stereo partly specified) |  | 3.85 µM (inactive) | 6.65 µM (inactive) | 1.15 µM (inactive) | 2.44 µM (inactive) | 0.861 µM (active) | 7.41 µM (inactive) | 7.53 µM (inactive) | 5.38 µM (inactive) | 0.75 µM (active) | 23.4 µM (inactive) |  | 14.6 µM (inactive) | 0.755 µM (active) | 0.714 µM (active) | 1.49 µM (inactive) | 0.488 µM (active) | 3.94 µM (inactive) | 2.98 µM (inactive) | 6.03 µM (inactive) |
| c1cc(NC2=NCCO2)c2c(c1)OCO2 |  | > 100 µM (inactive) | > 100 µM (inactive) | > 100 µM (inactive) | > 100 µM (inactive) | > 100 µM (inactive) | > 100 µM (inactive) | > 100 µM (inactive) | > 100 µM (inactive) | > 100 µM (inactive) | > 100 µM (inactive) | > 100 µM (inactive) | 80.2 µM (inactive) | > 100 µM (inactive) | > 100 µM (inactive) | > 100 µM (inactive) | > 100 µM (inactive) | > 100 µM (inactive) | > 100 µM (inactive) |  |
| c1ccc(CSc2nc(N3CCCCC3)c3cn[nH]c3n2)cc1 | 16.5 µM (inactive) | 16.3 µM (inactive) | 16.5 µM (inactive) | 19.7 µM (inactive) | 26.9 µM (inactive) | 18.4 µM (inactive) | 17.1 µM (inactive) | 36.6 µM (inactive) | 21.9 µM (inactive) | 26.6 µM (inactive) | 30.3 µM (inactive) | 36.1 µM (inactive) | 14.7 µM (inactive) | 20.4 µM (inactive) | 23 µM (inactive) | 19.1 µM (inactive) | 19.2 µM (inactive) | 17.5 µM (inactive) |  | 20.7 µM (inactive) |
| COc1cc(Br)c(OC)c2c(OC)cc(C)cc12 | 96.6 µM (inactive) | 89.9 µM (inactive) |  | > 100 µM (inactive) | > 100 µM (inactive) | > 100 µM (inactive) | > 100 µM (inactive) | > 100 µM (inactive) | 54.5 µM (inactive) | 54.5 µM (inactive) | > 100 µM (inactive) |  | > 100 µM (inactive) | > 100 µM (inactive) | > 100 µM (inactive) | > 100 µM (inactive) | > 100 µM (inactive) | > 100 µM (inactive) |  | 14.3 µM (inactive) |
| CCn1c(=O)c2nc(SC)sc2n(-c2ccc(C)cc2)c1=O |  | > 100 µM (inactive) | > 100 µM (inactive) | > 100 µM (inactive) | > 100 µM (inactive) | > 100 µM (inactive) | > 100 µM (inactive) | > 100 µM (inactive) | > 100 µM (inactive) | > 100 µM (inactive) | > 100 µM (inactive) | > 100 µM (inactive) | 88.9 µM (inactive) | > 100 µM (inactive) | > 100 µM (inactive) | > 100 µM (inactive) | > 100 µM (inactive) | > 100 µM (inactive) | > 100 µM (inactive) | 29.4 µM (inactive) |
| O=[N+]([O-])/C=C\c1c[nH]c2ccc(OCc3ccccc3)cc12 |  | 3.57 µM (inactive) | 5.06 µM (inactive) | 2.24 µM (inactive) | 6.49 µM (inactive) | 10.4 µM (inactive) | 12.9 µM (inactive) | 17.5 µM (inactive) | 2.64 µM (inactive) | 2.08 µM (inactive) | 7.46 µM (inactive) |  | 2.09 µM (inactive) | 11 µM (inactive) | 3.85 µM (inactive) | 5.85 µM (inactive) | 1.73 µM (inactive) | 4.15 µM (inactive) | 2.23 µM (inactive) |  |
| Cc1c(/C=N\NC(=S)N(C)CCN(C)C(=S)N/N=C\c2c(C)n(C)n(-c3ccccc3)c2=O)c(=O)n(-c2ccccc2)n1C | > 100 µM (inactive) | > 100 µM (inactive) | > 100 µM (inactive) |  |  | > 100 µM (inactive) | > 100 µM (inactive) | > 100 µM (inactive) | > 100 µM (inactive) |  | > 100 µM (inactive) | > 100 µM (inactive) | > 100 µM (inactive) | 55.7 µM (inactive) | > 100 µM (inactive) | > 100 µM (inactive) | > 100 µM (inactive) |  |  | 42.6 µM (inactive) |
